The text below walks through data of ChEMBL document CHEMBL1201862, “PubChem BioAssay data set” (2004).

Structures are written as SMILES.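 Five compound concentrations were applied to cells in 96-well plates for 48 hours; endpoints were derived by simple linear interpolation of the resulting dose-response curve. GI50 = concentration required for 50% inhibition of growth.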 Calls of active or inactive are those of the source. Cut-off read from the data, not from the text of the source: active = GI50 up to about 1.1 µM and inactive = higher. Where only a bound is given, the exact number is not on record here.

Assay in all cases: NCI anticancer screen, dose series, 48 h
The subject of test [1] is A549.
Test [2] has as its system SN12C.
The subject of test [3] is HL-60.
Test [4] deals with HT-29.
Test [5] has as its system KM12.
For test [6], the system named is LOX IMVI.
Test [7] has as its system Malme-3M.
The test system of test [8] is UACC-62.
The test system of test [9] is SW-620.
Test [10] deals with RXF 393.
For test [11], the system named is UACC-257.
Test [12] has as its system OVCAR-4.
The subject of test [13] is HOP-62.
The subject of test [14] is SK-OV-3.
Test [15] concerns A498.
Test [16] has as its system ACHN.
Test [17] relates to HOP-92.

Turning to `COc1ccc(/C=N/C23CC4CC(CC(C4)C2)C3)cc1`, the GI50 in test [1], in test [2], in test [3], in [4], in [5] and in [6] was > 100 µM (inactive) each time. Also, the GI50 in test [7], in test [8], in test [9], in test [10], in test [11] and in test [12] was > 100 µM (inactive) throughout. In addition, the GI50 in [13], in test [14], in [15] and in test [16] was > 100 µM (inactive) each time.
As to `C1CCN2CC3CONC3C2C1` (stereo not given), the GI50 in test [1], in test [2], in [3], in test [4], in test [5] and in [6] was > 100 µM (inactive) each time. In addition, the GI50 in test [7], in [8], in test [9], in test [10], in [11] and in [12] was > 100 µM (inactive) throughout. The GI50 in test [13], in [15] and in test [16] was > 100 µM (inactive) throughout.
On to `C/C(CC(=O)Nc1ccc(C)c(C)c1)=N\N(c1ccccc1)c1ccccc1`, for which the GI50 is > 100 µM (inactive) in test [1]; 42.9 µM (inactive) in test [2]; 88.1 µM (inactive) in test [3]; > 100 µM (inactive) in test [4]; > 100 µM (inactive) in [5]; 36.1 µM (inactive) in test [6]. The GI50 in test [7] was > 100 µM (inactive); in test [8], 21.6 µM (inactive); in test [10] it was 63.2 µM (inactive); in test [11] it was > 100 µM (inactive); in test [12] it was 43.4 µM (inactive); in [17], > 100 µM (inactive). The GI50 in test [13] is > 100 µM (inactive); in [14], > 100 µM (inactive); in test [15] it was > 100 µM (inactive); in [16], 58.9 µM (inactive).
Consider `COc1ccc(C2=Nc3ccccc3SC(C)C2)cc1OC` (stereo not given), for which the GI50 in test [2] was 20.3 µM (inactive); in test [3] it was 22.4 µM (inactive); in [4], 19.7 µM (inactive); in [5] it was 16.8 µM (inactive); in test [6] it was 17.9 µM (inactive); in [7] it was 21.4 µM (inactive). The GI50 in test [8] is 17.8 µM (inactive); in test [9], 5.66 µM (inactive); in [11] it was 23.5 µM (inactive); in test [12], 22.1 µM (inactive); in [17] it was 38.1 µM (inactive); in [14], 20.3 µM (inactive). The GI50 in test [15] was 23.8 µM (inactive); in [16], 22.1 µM (inactive).
As for `CCOc1ccc(NC(=O)/C(=C\c2ccc(C)cc2)C(C)=O)cc1`, the GI50 in [1] was > 100 µM (inactive); in [2] it was > 100 µM (inactive); in [3], < 0.01 µM (active); in test [4], > 100 µM (inactive); in [6], > 100 µM (inactive); in test [7], > 100 µM (inactive). Also, the GI50 in test [8], in test [9], in test [11], in [12], in test [17] and in [13] was > 100 µM (inactive) each time. The GI50 in [14], in [15] and in [16] was > 100 µM (inactive) each time.
In the case of `COc1ccc2c(=O)c(C)c(-c3ccccc3)oc2c1CN(C)C` [DIMEFLINE], the GI50 in test [1], in test [5], in test [6], in test [7], in [8] and in test [10] was > 100 µM (inactive) each time. Moreover, the GI50 in [12], in test [17], in test [13], in test [14], in test [15] and in test [16] was > 100 µM (inactive) each time.
For the compound `CCCCCCCCCCCc1noc2c1C(=O)C(O)CC2` (stereo not given), the GI50 in [1] was 22 µM (inactive); in [2], 16.1 µM (inactive); in [3], 23.9 µM (inactive); in test [4], 18.8 µM (inactive); in test [5], 22.9 µM (inactive); in test [6] it was 18.1 µM (inactive). Also, the GI50 was 16.4 µM (inactive) in [8]; 18 µM (inactive) in [9]; 14.2 µM (inactive) in test [10]; 20.5 µM (inactive) in [11]; 16.6 µM (inactive) in [12]; 20.1 µM (inactive) in [17]. Also, the GI50 was 45.8 µM (inactive) in [13], 25.7 µM (inactive) in test [14], 34.9 µM (inactive) in [15] and 32.8 µM (inactive) in [16].
With `Cn1cc(-c2ccc3c4ccccc4n(C)c3c2)c2ccccc21`, the GI50 in test [1] was > 100 µM (inactive); in test [2] it was > 100 µM (inactive); in [3] it was 75 µM (inactive); in test [4], 89.9 µM (inactive); in test [5], 93.3 µM (inactive); in test [6], > 100 µM (inactive). The GI50 in test [7], in test [8], in test [9], in [10], in test [11] and in test [12] was > 100 µM (inactive) each time. Besides, the GI50 in test [13], in test [14], in test [15] and in [16] was > 100 µM (inactive) throughout.
For the compound `CC1CC(=O)C2CC(CO)=CCCC2C1(C)CC/C(=C/CO)CO` (stereo not given), the GI50 is > 100 µM (inactive) in [1]; > 100 µM (inactive) in test [2]; > 100 µM (inactive) in test [4]; > 100 µM (inactive) in [5]; > 10 µM (inactive) in [6]; > 100 µM (inactive) in test [7]. In addition, the GI50 in test [8], in test [9], in test [10], in test [11], in test [17] and in [14] was > 100 µM (inactive) each time. In addition, the GI50 in test [15] and in test [16] was > 100 µM (inactive) each time.
For `NC(CCc1ncc(C(=O)O)s1)C(=O)O` (stereo not given), the GI50 in test [1], in test [2], in [4], in test [5], in test [6] and in test [7] was > 100 µM (inactive) throughout. Moreover, the GI50 in test [8], in test [9], in test [10], in [11], in test [17] and in [14] was > 100 µM (inactive) throughout. Also, the GI50 in [15] and in [16] was > 100 µM (inactive) each time.
As for `CCCCNC(=O)OCC(COc1ccccc1OC)OC(=O)NCCCC` (stereo not given), the GI50 in test [1], in test [2], in test [3], in test [4], in test [5] and in test [6] was > 100 µM (inactive) throughout. Further, the GI50 in test [7] was > 100 µM (inactive); in test [8], 89.9 µM (inactive); in test [9], > 100 µM (inactive); in test [10], > 100 µM (inactive); in test [11], > 100 µM (inactive); in test [12], > 100 µM (inactive). Besides, the GI50 in test [13], in test [14], in [15] and in [16] was > 100 µM (inactive) in each case.
As for `CS(=O)(=O)NNS(=O)(=O)c1cccc([N+](=O)[O-])c1`, the GI50 in [1], in test [2], in [3], in [4], in test [5] and in test [6] was > 100 µM (inactive) throughout. For the same compound, the GI50 in test [7], in test [8], in test [9], in [10], in test [11] and in [12] was > 100 µM (inactive) throughout. Further, the GI50 in [13], in test [15] and in test [16] was > 100 µM (inactive) each time.
Take `Cc1cccc(NC(=O)/C=C/c2ccc(N(CCC#N)CCC#N)cc2C)c1`: the GI50 in test [1] is > 100 µM (inactive); in test [2] it was > 100 µM (inactive); in test [3], 21.5 µM (inactive); in [4], > 100 µM (inactive); in test [5] it was > 100 µM (inactive); in test [6], 43.7 µM (inactive). For the same compound, the GI50 in test [7] is > 100 µM (inactive); in test [8], 28 µM (inactive); in test [9], > 100 µM (inactive); in [11] it was > 100 µM (inactive); in test [12], > 100 µM (inactive); in test [17] it was > 100 µM (inactive). The GI50 in test [13] is > 100 µM (inactive); in [14], > 100 µM (inactive); in [15], > 100 µM (inactive); in [16], 70.3 µM (inactive).
